The results in this text go back to ChEMBL document CHEMBL4130368, “Thienopyrimidine derivatives exert their anticancer efficacy via apoptosis induction, oxidative stress and mitotic catastrophe” (Eur J Med Chem, 2017).

SMILES strings stand for the structures.

The subject of one assay is HCT-116. Put plainly: Antiproliferative activity against human HCT116 cells after 72 hrs by MTT assay. It counts as functional, cell-based. The note with it: HCT-116, 72 h. A general note: Tetrazolium dyes change colour on reduction, which living cells bring about.
The next assay has as its system HCT-15. The experiment in a line: Antiproliferative activity against human HCT15 cells after 72 hrs by MTT assay. It counts as functional, cell-based. The note with it: HCT-15, 72 h.
For the next assay, the system named is LN-229. Put plainly: Antiproliferative activity against human LN229 cells after 72 hrs by MTT assay. It counts as functional, cell-based. Conditions: LN-229, 72 h.
Assay [1] can be described thus: Antiproliferative activity against human GBM10 cells after 72 hrs by MTT assay. Conditions: GBM10, 72 h. It counts as functional, cell-based.
A further assay has as its system A2780. The experiment in a line: Antiproliferative activity against human A2780 cells after 72 hrs by MTT assay. The format is functional, cell-based. The note with it: A2780, 72 h.
The next assay has as its system CHO. The experiment in a line: Cytotoxicity against CHO cells assessed as reduction in cell survival after 72 hrs by MTT assay. It counts as ADME, cell-based. Conditions: Cricetulus griseus.
The next assay relates to KB. The experiment in a line: Antiproliferative activity against human KB cells by MTT assay. It counts as functional, cell-based.
For the next assay, the system named is NCI-H460. Put plainly: Antiproliferative activity against human NCI-H460 cells after 24 hrs by MTT assay. Conditions: NCI-H460, 24 h. It counts as functional, cell-based.
In a further assay the test system is A549. The experiment in a line: Antiproliferative activity against human A549 cells after 24 hrs by MTT assay. The format is functional, cell-based. Conditions: A549, 24 h.
For another assay, the system named is U-251. Put plainly: Antiproliferative activity against human U251 cells after 24 hrs by MTT assay. It counts as functional, cell-based. Conditions: U-251, 24 h.
In a further assay the test system is HepG2. The experiment in a line: Antiproliferative activity against human HepG2 cells after 72 hrs by MTT assay. It counts as functional, cell-based. Conditions: HepG2, 72 h.
The next assay concerns PC-3. The experiment in a line: Antiproliferative activity against human PC3 cells after 72 hrs by MTT assay. The note with it: PC-3, 72 h. It counts as functional, cell-based.

The IC50 is the concentration at which inhibition is half-maximal. Take `COc1cccc(-c2nc3sc4c(c3c(=O)[nH]2)CCCC4)c1`: the IC50 in the assay on HCT-116 was greater than 100 µM; in the assay on HCT-15, greater than 100 µM; in the assay on LN-229 it was greater than 100 µM; in [1], greater than 100 µM; with A2780 it was 9.6 µM; in the assay on CHO, greater than 100 µM.

For `CCCCOc1nc2sc3c(c2c(=O)n1Cc1ccccc1)CCCC3`, the IC50 with KB is 19 µM.

Regarding `O=c1[nH]c(-c2ccc(Cl)cc2Cl)nc2sc3c(c12)CCCC3`, the half-maximal inhibitory concentration (IC50) is 77.1 µM in the assay with HCT-116; 90.9 µM in the assay on HCT-15; 89.6 µM with LN-229; 99.5 µM in assay [1]; 28.7 µM with A2780; greater than 100 µM with CHO.

Regarding `Nc1nc(NNC(=O)c2ccncc2)nc2sc3c(c12)CCCC3`, the IC50 in the assay with NCI-H460 amounted to 7.7 µM; in the assay on A549, 18.9 µM; in the assay with U-251 it was 13.3 µM.

For `COc1cccc(-c2nc3sc4c(c3c(=O)[nH]2)CCCC4)c1O`, the IC50 in the assay on HCT-116 was 34.2 µM; with HCT-15, 32.8 µM; with LN-229, 49.3 µM; in assay [1], 59.4 µM; with A2780, greater than 100 µM; in the assay on CHO, greater than 100 µM.

For `COc1cc(OC)cc(-c2nc(O)c3c4c(sc3n2)CCCC4)c1`, the IC50 in the assay with HCT-116 was 22.3 µM; with HCT-15 it was 26.3 µM; in the assay on LN-229, 48.1 µM; in assay [1] it was 41.9 µM; with A2780, 7.3 µM; in the assay with CHO it was greater than 100 µM.

For `Oc1nc(-c2ccc(Cl)cc2)nc2sc3c(c12)CCCC3`, the 50% inhibitory concentration (IC50) with HCT-116 is 33.8 µM; with HCT-15, 19.2 µM; in the assay on LN-229, 33.8 µM; in assay [1] it was 33.2 µM; with A2780, greater than 100 µM; with CHO, greater than 100 µM.

`N#Cc1ccc(-c2nc3sc4c(c3c(=O)[nH]2)CCCC4)cc1`: the IC50 (with HCT-116; with HCT-15; in the assay with LN-229; in assay [1]; in the assay on A2780; in the assay on CHO) was greater than 100 µM throughout.

With `Oc1nc(-c2ccccc2)nc2sc3c(c12)CCCC3`, the IC50 with HCT-116 was 8.3 µM; in the assay with HCT-15 it was 4.8 µM; with LN-229 it was 18.3 µM; in [1] it was 12 µM; with A2780, greater than 100 µM; in the assay with CHO, greater than 100 µM.

For `O=c1c2c3c(sc2ncn1Cc1ccc(Br)cc1)CCCC3`, in the assay with HepG2, the IC50 is 14.9 µM.

For `O=C(CSc1nc2sc3c(c2c(=O)n1Cc1ccccc1)CCCC3)NNC(=S)Nc1ccccc1`, the IC50 in the assay on PC-3 and in the assay with HCT-15 was 5.33 µM throughout.

Take `O=c1[nH]c(-c2cccc([N+](=O)[O-])c2)nc2sc3c(c12)CCCC3`: the IC50 in the assay on HCT-116 was 2.8 µM; in the assay on HCT-15 it was 1.9 µM; in the assay with LN-229, 8.3 µM; in assay [1], 12.6 µM; with A2780 it was 91.8 µM; with CHO, greater than 100 µM.

With `O=c1[nH]c(-c2ccc(F)cc2)nc2sc3c(c12)CCCC3`, the IC50 with HCT-116 was 9.1 µM; with HCT-15, 8.6 µM; in the assay on LN-229, 16.9 µM; in assay [1] it was 14.5 µM; in the assay on A2780, greater than 100 µM; in the assay on CHO it was greater than 100 µM.

With `O=[N+]([O-])c1ccc(-c2nc(O)c3c4c(sc3n2)CCCC4)cc1`, the IC50 in the assay on HCT-116 was 71.1 µM; with HCT-15, 65.6 µM; in the assay with LN-229, 44.2 µM; in assay [1], 51.7 µM; with A2780, greater than 100 µM; in the assay with CHO, greater than 100 µM.

Turning to `COc1ccc(-c2nc(O)c3c4c(sc3n2)CCCC4)cc1OC`, the IC50 was 19.6 µM in the assay on HCT-116; 11 µM in the assay on HCT-15; 14.5 µM with LN-229; 12.5 µM in assay [1]; 1.9 µM in the assay with A2780; greater than 100 µM with CHO.

Regarding `Cc1ccc(-c2nc(O)c3c4c(sc3n2)CCCC4)cc1`, the IC50 in the assay on HCT-116 is greater than 100 µM; in the assay on HCT-15, greater than 100 µM; in the assay on LN-229, 99.1 µM; in [1], 69.9 µM; with A2780, 86.8 µM; in the assay on CHO it was greater than 100 µM.
